As a reminder, the viability, T/C is the result in the treated group divided by that in the control group, in per cent. Broadly, the IC50 is the point on the concentration scale where inhibition reaches its midpoint.

“And” between values parts separate entries of the source, which are not always exact repeats. Equal entries are not always repeated.

The values below come from PubChem BioAssay AID1963971 (Molecular Pharmacology Branch, DTP, NCI, 2024).

The subject of this test is 953936-095-R-J2-PDC spheroids with HUVEC/MSC, viability. The test is described as follows: Anticancer human tumor 953936-095-R-J2-PDC patient-derived cervical squamous cell carcinoma cell line growth inhibition [PI3K]. The settings on record: for viability, T/C: stronger effect = lower value. The source says: Combinatorial screen of targeted agents with the PI3K inhibitors inavolisib, alpelisib, duvelisib, and copanlisib in multi-cell type tumor spheroids
A high-throughput screen of multi-cell type tumor spheroids was designed to identify active combinations of targeted small molecules and PI3K pathway inhibitors. Complex spheroids include a stromal component modeled by human endothelial cells (HUVEC) and fibroblasts modeled by human mesenchymal stem cells (MSCs). The concentration ranges selected for each drug and investigational agent were based upon clinically achievable concentrations if the clinical Cmax of the agent was known.
Compounds. The drugs and investigational agents: inavolisib (NSC800729), alpelisib (NSC765974), duvelisib (NSC772469), copanlisib (NSC816437), ipatasertib (NSC767898), afuresertib (NSC778305), talazoparib (NSC767125), sapanisertib (NSC764658), selumetinib (NSC741078), tovorafenib (DAY101, NSC766906), vemurafenib (NSC761431), ravoxertinib (NSC781343), sotorasib (NSC818433), MRTX1133 (NSC 836407), abemaciclib (NSC 768073), palbociclib (NSC758247), venetoclax (NSC 766270), SY5609 (NSC837396), enzalutamide (NSC755605), and darolutamide (NSC825331), were obtained from the National Cancer Institute (NCI) Developmental Therapeutics Program Chemical Repository. The FDA-approved anticancer drug set is available from the NCI Developmental Therapeutics Program. […] The stock solutions were prepared in dimethyl sulfoxide (DMSO, Sigma-Aldrich, St. Louis, MO, cat. D2650) at 800-fold the tested concentration and stored at -70 degrees C prior to their use. All drugs and investigational agents were tested over a range starting from a high concentration at or near the clinical Cmax and decreasing in half-log increments. If the clinical Cmax for an agent had not been determined, the highest concentration tested was 10 microM.
Cell Culture. All cells were maintained in an incubator at 37 degrees C and 5% CO2 with 95% humidity. The PDC lines were cultured according to standard operating procedures established by the NCI PDMR (https://pdmr.cancer.gov/sops/default.htm). All PDCs were thawed and cultured in Matrigel-coated flasks prepared with a working solution of 1X Ham's F-12 nutrient mix, without supplementation (Invitrogen, Waltham, MA, cat. 11765054), 100 U/mL penicillin-streptomycin (Invitrogen, cat. 15140122), and 2.5% Matrigel (Corning Inc., Corning, NY, cat. 354248) for the first three passages. The 354836-022-R-J1-PDC, 475296-252-R-J1-PDC, and 997726-040-R-J2-PDC lines were cultured in 6A media, which includes advanced DMEM/F-12 (Thermo Fisher Scientific, cat. 12634028), 10 mM HEPES (Thermo Fisher Scientific, cat. 15630080), 1X GlutaMAX supplement (Thermo Fisher Scientific, cat. 35050061), 0.1 mg/mL primocin (InvivoGen, San Diego, CA, cat. ant-pm-2), 10% defined fetal bovine serum, heat inactivated (HyClone Laboratories Inc., Logan, UT, cat. SH30070.03HI), 50% L-WRN conditioned media (ATCC, cat. CRL-3276), 1.25 mM N-Acetyl-L-cysteine (Sigma-Aldrich, cat. A9165), 10 mM nicotinamide (Sigma-Aldrich, cat. N0636), 1X B-27 supplement (Thermo Fisher Scientific, cat. 17504044), 1X N-2 supplement (Thermo Fisher Scientific, cat. 17502048), and 10 microM Y-27632 dihydrochloride (Tocris Bioscience, Bristol, United Kingdom, cat. 1254). The 624824-186-R-J2-PDC line was cultured in 6C/Colon 1B media, which includes all 6A media components plus 50 ng/mL human EGF recombinant protein (Thermo Fisher Scientific, cat. PHG0311). […]

[1] abbreviates: compound alone, run of 06/12/2023.
Where [2] appears, read: compound alone, run of 06/13/2023.
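Note: spheroids exposed to compounds for seven days before read-out.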

As to `CC(=O)c1c(C)c2cnc(Nc3ccc(N4CCNCC4)cn3)nc2n(C2CCCC2)c1=O`, the viability, T/C is, setting by setting: (compound 0.000316 µM) 95.2% [middle of 4 runs]; (compound 0.001 µM) 96.6% [middle of 4 runs]; (compound 0.00316 µM) 103% [middle of 4 runs]; (compound 0.01 µM) 97.6% [middle of 4 runs]; (compound 0.0316 µM) 96.6% [middle of 4 runs]; (compound 0.1 µM) 95.7% [middle of 4 runs]. Also, under “curve of compound”, the half-inhibitory concentration (IC50) was more than 0.1 µM.
Consider `CC(C)NCC(C(=O)N1CCN(c2ncnc3c2C(C)CC3O)CC1)c1ccc(Cl)cc1` (stereo unspecified), for which the viability, T/C runs as follows: (compound 0.0316 µM) 92.7% [middle of 4 runs]; (compound 0.1 µM) 91.5% [middle of 4 runs]; (compound 0.316 µM) 80.4% [middle of 4 runs]; (compound 1 µM) 50.5% [middle of 4 runs]; (compound 3.16 µM) 24.3% [middle of 4 runs]; (compound 10 µM) 15.2% [middle of 4 runs]. In addition, where the note is “curve of compound”, the IC50 is 1.02 µM [middle of 4 runs].
As for `CC(C)n1nc(-c2ccc3oc(N)nc3c2)c2c(N)ncnc21`, the viability, T/C reads like this: (compound 0.000316 µM) 91% [middle of 4 runs]; (compound 0.001 µM) 92.7% [middle of 4 runs]; (compound 0.00316 µM) 88.9% [middle of 4 runs]; (compound 0.01 µM) 73.4% [middle of 4 runs]; (compound 0.0316 µM) 50.6% [middle of 4 runs]; (compound 0.1 µM) 17.6% [middle of 4 runs]. The concentration for half-maximal inhibition (IC50) (curve of compound) is 32.4 nM [middle of 4 runs].
With `CC(Nc1ccc2c(c1)OCCn1cc(N3C(=O)OCC3C(F)F)nc1-2)C(N)=O` (stereo unspecified), the viability, T/C (compound 0.00316 µM) was 104% [middle of 8 runs]; the viability, T/C (compound 0.01 µM) was 92.8% [middle of 8 runs]; the viability, T/C (compound 0.0316 µM) was 75.9% [middle of 8 runs]; the viability, T/C (compound 0.1 µM) was 56.1% [middle of 8 runs]; the viability, T/C (compound 0.316 µM) is 36.3% [middle of 8 runs]; the viability, T/C (compound 1 µM) is 23.6% [middle of 8 runs]. For the same compound, the concentration for half-maximal inhibition (IC50) under setting [1] is 140 nM [middle of 7 runs].
For `CC(Nc1ncnc2nc[nH]c12)c1cc2cccc(Cl)c2c(=O)n1-c1ccccc1` (stereo unspecified), the viability, T/C by setting is: (compound 0.0316 µM) 97.8% [middle of 8 runs]; (compound 0.1 µM) 93.8% [middle of 8 runs]; (compound 0.316 µM) 92.2% [middle of 8 runs]; (compound 1 µM) 85.9% [middle of 8 runs]; (compound 3.16 µM) 80% [middle of 8 runs]; (compound 10 µM) 65% [middle of 8 runs]. For the same compound, under setting [2], the IC50 was more than 10 µM.
Regarding `CC1(C)CCC(CN2CCN(c3ccc(C(=O)NS(=O)(=O)c4ccc(NCC5CCOCC5)c([N+](=O)[O-])c4)c(Oc4cnc5[nH]ccc5c4)c3)CC2)=C(c2ccc(Cl)cc2)C1`, the viability, T/C reads like this: (compound 0.0316 µM) 96.8% [middle of 4 runs]; (compound 0.1 µM) 95.1% [middle of 4 runs]; (compound 0.316 µM) 92.7% [middle of 4 runs]; (compound 1 µM) 102% [middle of 4 runs]; (compound 10 µM) 32.5% [middle of 4 runs]. Moreover, the IC50 (curve of compound) is 7.57 µM [middle of 4 runs].
In the case of `CCCS(=O)(=O)Nc1ccc(F)c(C(=O)c2c[nH]c3ncc(-c4ccc(Cl)cc4)cc23)c1F`, the viability, T/C is, setting by setting: (compound 0.0316 µM) 94.5% [middle of 4 runs]; (compound 0.1 µM) 106% (2×) and 102% and 103%; (compound 0.316 µM) 113% [middle of 4 runs]; (compound 1 µM) 113% [middle of 4 runs]; (compound 3.16 µM) 105% [middle of 4 runs]; (compound 10 µM) 1.33% [middle of 4 runs]. For the same compound, for the setting “curve of compound”, the IC50 was 5.69 µM [middle of 4 runs].
`CCN1CCN(Cc2ccc(Nc3ncc(F)c(-c4cc(F)c5nc(C)n(C(C)C)c5c4)n3)nc2)CC1`: the viability, T/C (compound 0.00316 µM) is 98.4% [middle of 4 runs]; the viability, T/C (compound 0.01 µM) is 96.4% [middle of 4 runs]; the viability, T/C (compound 0.0316 µM) is 93.1% [middle of 4 runs]; the viability, T/C (compound 0.1 µM) is 100% and 101% (2×) and 89.5%; the viability, T/C (compound 0.316 µM) is 88.2% [middle of 4 runs]; the viability, T/C (compound 1 µM) was 85.2% [middle of 4 runs]. In addition, the 50% inhibitory concentration (IC50) (curve of compound) is more than 1 µM.
As to `CNC(=O)c1ccc(N2C(=S)N(c3ccc(C#N)c(C(F)(F)F)c3)C(=O)C2(C)C)cc1F`, the viability, T/C is 106% (2×) and 93.7% and 103% (compound 0.0316 µM); 98% [middle of 4 runs] (compound 0.1 µM); 93.5% [middle of 4 runs] (compound 0.316 µM); 102% (2×) and 112% and 107% (compound 1 µM); 88.5% [middle of 4 runs] (compound 10 µM). In addition, the IC50 (curve of compound) is more than 10 µM.
With `COc1c(OCCCN2CCOCC2)ccc2c3n(c(=NC(=O)c4cnc(N)nc4)nc12)CCN3`, the viability, T/C is 85% [middle of 8 runs] (compound 0.00316 µM); 71.1% [middle of 8 runs] (compound 0.01 µM); 39.5% [middle of 8 runs] (compound 0.0316 µM); 17.8% [middle of 8 runs] (compound 0.1 µM); 5.89% [middle of 8 runs] (compound 0.316 µM); 1.69% [middle of 7 runs] (compound 1 µM). Further, under setting [2], the half-inhibitory concentration (IC50) was 22.6 nM [middle of 6 runs].
On to `C[C@@H](NC(=O)c1ncnc(N)c1Cl)c1ncc(C(=O)Nc2cc(C(F)(F)F)c(Cl)cn2)s1`, for which the viability, T/C (compound 0.0316 µM) was 105% (2×) and 98.5% and 118%; the viability, T/C (compound 0.1 µM) was 104% (3×) and 103%; the viability, T/C (compound 0.316 µM) is 110% [middle of 4 runs]; the viability, T/C (compound 1 µM) is 115% [middle of 4 runs]; the viability, T/C (compound 3.16 µM) was 108% [middle of 4 runs]; the viability, T/C (compound 10 µM) was 102% [middle of 4 runs]. Also, the IC50 (curve of compound) is more than 10 µM.
On to `Cc1nc(NC(=O)N2CCCC2C(N)=O)sc1-c1ccnc(C(C)(C)C(F)(F)F)c1` (stereo unspecified), for which the viability, T/C reads like this: (compound 0.0316 µM) 90% [middle of 8 runs]; (compound 0.1 µM) 80.7% [middle of 8 runs]; (compound 0.316 µM) 64.2% [middle of 8 runs]; (compound 1 µM) 43.8% [middle of 8 runs]; (compound 3.16 µM) 28.4% [middle of 8 runs]; (compound 10 µM) 13.6% [middle of 8 runs]. Moreover, the IC50 under setting [1] was 746 nM [middle of 8 runs].
Consider `Cn1cnc2c(F)c(Nc3ccc(Br)cc3Cl)c(C(=O)NOCCO)cc21`, for which the viability, T/C is 90.5% (2×) and 83.8% and 88.8% (compound 0.00949 µM); 81.4% [middle of 4 runs] (compound 0.03 µM); 72.3% [middle of 4 runs] (compound 0.0949 µM); 66% [middle of 4 runs] (compound 0.3 µM); 54.8% [middle of 4 runs] (compound 0.949 µM); 37.9% [middle of 4 runs] (compound 3 µM). The 50% inhibitory concentration (IC50) (curve of compound) is 1.01 µM [middle of 4 runs].
As to `Cn1ncnc1[C@H]1c2n[nH]c(=O)c3cc(F)cc(c23)N[C@@H]1c1ccc(F)cc1`, the viability, T/C (compound 0.000316 µM) was 97.2% [middle of 4 runs]; the viability, T/C (compound 0.001 µM) is 101% [middle of 4 runs]; the viability, T/C (compound 0.00316 µM) is 103% [middle of 4 runs]; the viability, T/C (compound 0.01 µM) was 115% and 101% (2×) and 97.3%; the viability, T/C (compound 0.0316 µM) was 101% (2×) and 96.9% and 92.6%; the viability, T/C (compound 0.1 µM) was 94.8% [middle of 4 runs]. For the same compound, the half-maximal inhibitory concentration (IC50) (curve of compound) was more than 0.1 µM.
